# According to PubChem BioAssay AID2060892 (Molecular Pharmacology Branch, DTP, NCI, 2025):
# Tested on: HOP-62 complex spheroids with HUVEC/MSC, viability
# Assay: Anticancer human tumor HOP-62 cell line growth inhibition [RAS];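 also: spheroids exposed to agents for seven days before readout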;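 as to viability, T/C: 100% = DMSO vehicle control viability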
# Conditions: for IC50: curve of first compound; for viability, T/C: stronger effect = lower value
# In short: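 Tumour cells grown as complex spheroids with HUVEC endothelial cells and mesenchymal stem cells, treated with RAS pathway inhibitor combinations. Each agent spans half-log steps from near clinical Cmax, or 10 microM where Cmax is unknown.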
# [1] = second compound 0.000949 µM, first compound 0.00316 µM
# [2] = second compound 0.000949 µM, first compound 0.01 µM
# [3] = second compound 0.000949 µM, first compound 0.0316 µM
# [4] = second compound 0.000949 µM, first compound 0.1 µM
# [5] = second compound 0.003 µM, first compound 0.00316 µM
# [6] = second compound 0.003 µM, first compound 0.01 µM
# [7] = second compound 0.003 µM, first compound 0.0316 µM
# [8] = second compound 0.003 µM, first compound 0.1 µM
# [9] = second compound 0.00949 µM, first compound 0.00316 µM
# [10] = second compound 0.00949 µM, first compound 0.01 µM
# [11] = second compound 0.00949 µM, first compound 0.0316 µM
# [12] = second compound 0.00949 µM, first compound 0.1 µM
# [13] = second compound 0.03 µM, first compound 0.00316 µM
# [14] = second compound 0.03 µM, first compound 0.01 µM
# [15] = second compound 0.03 µM, first compound 0.0316 µM
# [16] = second compound 0.03 µM, first compound 0.1 µM
# [17] = second compound 0.0949 µM, first compound 0.00316 µM
# [18] = second compound 0.0949 µM, first compound 0.01 µM
# [19] = second compound 0.0949 µM, first compound 0.0316 µM
# [20] = second compound 0.0949 µM, first compound 0.1 µM
# [21] = second compound 0.3 µM, first compound 0.00316 µM
# [22] = second compound 0.3 µM, first compound 0.01 µM
# [23] = second compound 0.3 µM, first compound 0.0316 µM
# [24] = second compound 0.3 µM, first compound 0.1 µM
# [25] = second compound 0.000949 µM, first compound 0.316 µM
# [26] = second compound 0.000949 µM, first compound 1 µM
# [27] = second compound 0.000949 µM, first compound 3.16 µM
# [28] = second compound 0.000949 µM, first compound 10 µM
# [29] = second compound 0.003 µM, first compound 0.316 µM
# [30] = second compound 0.003 µM, first compound 1 µM
# [31] = second compound 0.003 µM, first compound 3.16 µM
# [32] = second compound 0.003 µM, first compound 10 µM
# [33] = second compound 0.00949 µM, first compound 0.316 µM
# [34] = second compound 0.00949 µM, first compound 1 µM
# [35] = second compound 0.00949 µM, first compound 3.16 µM
# [36] = second compound 0.00949 µM, first compound 10 µM
# [37] = second compound 0.03 µM, first compound 0.316 µM
# [38] = second compound 0.03 µM, first compound 1 µM
# [39] = second compound 0.03 µM, first compound 3.16 µM
# [40] = second compound 0.03 µM, first compound 10 µM
# [41] = second compound 0.0949 µM, first compound 0.316 µM
# [42] = second compound 0.0949 µM, first compound 1 µM
# [43] = second compound 0.0949 µM, first compound 3.16 µM
# [44] = second compound 0.0949 µM, first compound 10 µM
# [45] = second compound 0.3 µM, first compound 0.316 µM
# [46] = second compound 0.3 µM, first compound 1 µM
# [47] = second compound 0.3 µM, first compound 3.16 µM
# [48] = second compound 0.3 µM, first compound 10 µM
smiles,measurement,setting,value
CC(C)n1nc(-c2ccc3oc(N)nc3c2)c2c(N)ncnc21 + CCn1c(-c2cccnc2C(C)OC)c2c3cc(ccc31)N1CCOC(CC(NC(=O)C(C(C)C)N(C)C(=O)C3(F)CCN(C(=O)C#CC(C)(C)N(C)C)CC3)C(=O)N3CCCC(N3)C(=O)OCC(C)(C)C2)C1,IC50,second compound 0.000949 µM,31.6 nM
same,IC50,second compound 0.003 µM,11.8 nM
same,IC50,second compound 0.00949 µM,10.9 nM
same,IC50,second compound 0.03 µM,17.3 nM
same,IC50,second compound 0.0949 µM,7 nM
same,IC50,second compound 0.3 µM,6.72 nM
same,"viability, T/C","second compound 0.000949 µM, first compound 0.000316 µM",118%
same,"viability, T/C","second compound 0.000949 µM, first compound 0.001 µM",107%
same,"viability, T/C",[1],64.2%
same,"viability, T/C",[2],74.7%
same,"viability, T/C",[3],55.6%
same,"viability, T/C",[4],30.6%
same,"viability, T/C","second compound 0.003 µM, first compound 0.000316 µM",105%
same,"viability, T/C","second compound 0.003 µM, first compound 0.001 µM",81%
same,"viability, T/C",[5],58.8%
same,"viability, T/C",[6],56.3%
same,"viability, T/C",[7],45.7%
same,"viability, T/C",[8],25.4%
same,"viability, T/C","second compound 0.00949 µM, first compound 0.000316 µM",94.9%
same,"viability, T/C","second compound 0.00949 µM, first compound 0.001 µM",64%
same,"viability, T/C",[9],65.3%
same,"viability, T/C",[10],53.4%
same,"viability, T/C",[11],44.5%
same,"viability, T/C",[12],26.1%
same,"viability, T/C","second compound 0.03 µM, first compound 0.000316 µM",80.7%
same,"viability, T/C","second compound 0.03 µM, first compound 0.001 µM",75.6%
same,"viability, T/C",[13],71.1%
same,"viability, T/C",[14],67.7%
same,"viability, T/C",[15],30.1%
same,"viability, T/C",[16],30.6%
same,"viability, T/C","second compound 0.0949 µM, first compound 0.000316 µM",85.7%
same,"viability, T/C","second compound 0.0949 µM, first compound 0.001 µM",67.8%
same,"viability, T/C",[17],61%
same,"viability, T/C",[18],52.2%
same,"viability, T/C",[19],25.6%
same,"viability, T/C",[20],30%
same,"viability, T/C","second compound 0.3 µM, first compound 0.000316 µM",75.7%
same,"viability, T/C","second compound 0.3 µM, first compound 0.001 µM",77.8%
same,"viability, T/C",[21],59.8%
same,"viability, T/C",[22],45.3%
same,"viability, T/C",[23],32.2%
same,"viability, T/C",[24],30.6%
CC1(O)CCCC1n1c(=O)c(C(F)F)cc2cnc(NC3CCN(S(C)(=O)=O)CC3)nc21 (stereo not drawn) + CCn1c(-c2cccnc2C(C)OC)c2c3cc(ccc31)N1CCOC(CC(NC(=O)C(C(C)C)N(C)C(=O)C3(F)CCN(C(=O)C#CC(C)(C)N(C)C)CC3)C(=O)N3CCCC(N3)C(=O)OCC(C)(C)C2)C1,IC50,second compound 0.000949 µM,4840 nM
same,IC50,second compound 0.003 µM,4470 nM
same,IC50,second compound 0.00949 µM,3400 nM
same,IC50,second compound 0.03 µM,1170 nM
same,IC50,second compound 0.0949 µM,1630 nM
same,IC50,second compound 0.3 µM,777 nM
same,"viability, T/C",[3],107%
same,"viability, T/C",[4],87.9%
same,"viability, T/C",[25],58%
same,"viability, T/C",[26],86.6%
same,"viability, T/C",[27],77.8%
same,"viability, T/C",[28],2.45%
same,"viability, T/C",[7],94.1%
same,"viability, T/C",[8],65.2%
same,"viability, T/C",[29],54.5%
same,"viability, T/C",[30],67.6%
same,"viability, T/C",[31],70.9%
same,"viability, T/C",[32],2.8%
same,"viability, T/C",[11],83%
same,"viability, T/C",[12],59.1%
same,"viability, T/C",[33],61%
same,"viability, T/C",[34],60%
same,"viability, T/C",[35],55.9%
same,"viability, T/C",[36],2.82%
same,"viability, T/C",[15],89.5%
same,"viability, T/C",[16],80.2%
same,"viability, T/C",[37],57.5%
same,"viability, T/C",[38],60.5%
same,"viability, T/C",[39],33%
same,"viability, T/C",[40],2.88%
same,"viability, T/C",[19],80.6%
same,"viability, T/C",[20],67.1%
same,"viability, T/C",[41],56.8%
same,"viability, T/C",[42],59.7%
same,"viability, T/C",[43],43.4%
same,"viability, T/C",[44],2.21%
same,"viability, T/C",[23],71.7%
same,"viability, T/C",[24],63.1%
same,"viability, T/C",[45],56.5%
same,"viability, T/C",[46],51.9%
same,"viability, T/C",[47],21.2%
same,"viability, T/C",[48],2.92%
CCN1CCN(Cc2ccc(Nc3ncc(F)c(-c4cc(F)c5nc(C)n(C(C)C)c5c4)n3)nc2)CC1 + CCn1c(-c2cccnc2C(C)OC)c2c3cc(ccc31)N1CCOC(CC(NC(=O)C(C(C)C)N(C)C(=O)C3(F)CCN(C(=O)C#CC(C)(C)N(C)C)CC3)C(=O)N3CCCC(N3)C(=O)OCC(C)(C)C2)C1,IC50,second compound 0.000949 µM,> 1000 nM
same,IC50,second compound 0.003 µM,> 1000 nM
same,IC50,second compound 0.00949 µM,> 1000 nM
same,IC50,second compound 0.03 µM,> 1000 nM
same,IC50,second compound 0.0949 µM,> 1000 nM
same,IC50,second compound 0.3 µM,> 1000 nM
same,"viability, T/C",[1],106%
same,"viability, T/C",[2],116%
same,"viability, T/C",[3],86.5%
same,"viability, T/C",[4],108%
same,"viability, T/C",[25],107%
same,"viability, T/C",[26],92.3%
same,"viability, T/C",[5],102%
same,"viability, T/C",[6],99.7%
same,"viability, T/C",[7],68.9%
same,"viability, T/C",[8],97%
same,"viability, T/C",[29],97.5%
same,"viability, T/C",[30],76.8%
same,"viability, T/C",[9],100%
same,"viability, T/C",[10],81.7%
same,"viability, T/C",[11],84.2%
same,"viability, T/C",[12],87.9%
same,"viability, T/C",[33],88.6%
same,"viability, T/C",[34],79.2%
same,"viability, T/C",[13],96.6%
same,"viability, T/C",[14],86.7%
same,"viability, T/C",[15],82.8%
same,"viability, T/C",[16],85.3%
same,"viability, T/C",[37],78.6%
same,"viability, T/C",[38],89.5%
same,"viability, T/C",[17],87.8%
same,"viability, T/C",[18],97.7%
same,"viability, T/C",[19],79.7%
same,"viability, T/C",[20],74.4%
same,"viability, T/C",[41],68.3%
same,"viability, T/C",[42],97.4%
same,"viability, T/C",[21],90.2%
same,"viability, T/C",[22],78.9%
same,"viability, T/C",[23],79.7%
same,"viability, T/C",[24],70.2%
same,"viability, T/C",[45],74.3%
same,"viability, T/C",[46],91.4%
C[C@@H](NC(=O)c1ncnc(N)c1Cl)c1ncc(C(=O)Nc2cc(C(F)(F)F)c(Cl)cn2)s1 + CCn1c(-c2cccnc2C(C)OC)c2c3cc(ccc31)N1CCOC(CC(NC(=O)C(C(C)C)N(C)C(=O)C3(F)CCN(C(=O)C#CC(C)(C)N(C)C)CC3)C(=O)N3CCCC(N3)C(=O)OCC(C)(C)C2)C1,IC50,second compound 0.000949 µM,> 10000 nM
same,IC50,second compound 0.003 µM,> 10000 nM
same,IC50,second compound 0.00949 µM,> 10000 nM
same,IC50,second compound 0.03 µM,> 10000 nM
same,IC50,second compound 0.0949 µM,> 10000 nM
same,IC50,second compound 0.3 µM,> 10000 nM
same,"viability, T/C",[3],113%
same,"viability, T/C",[4],93%
same,"viability, T/C",[25],86.2%
same,"viability, T/C",[26],109%
same,"viability, T/C",[27],108%
same,"viability, T/C",[28],65.3%
same,"viability, T/C",[7],115%
same,"viability, T/C",[8],103%
same,"viability, T/C",[29],87.9%
same,"viability, T/C",[30],108%
same,"viability, T/C",[31],87%
same,"viability, T/C",[32],67.7%
same,"viability, T/C",[11],95%
same,"viability, T/C",[12],94.8%
same,"viability, T/C",[33],85.3%
same,"viability, T/C",[34],96.2%
same,"viability, T/C",[35],77.7%
same,"viability, T/C",[36],70.6%
same,"viability, T/C",[15],96.8%
same,"viability, T/C",[16],89.6%
same,"viability, T/C",[37],95.8%
same,"viability, T/C",[38],82.4%
same,"viability, T/C",[39],64.5%
same,"viability, T/C",[40],76%
same,"viability, T/C",[19],94.7%
same,"viability, T/C",[20],90.8%
same,"viability, T/C",[41],81.7%
same,"viability, T/C",[42],80.3%
same,"viability, T/C",[43],68.1%
same,"viability, T/C",[44],75.7%
same,"viability, T/C",[23],86.3%
same,"viability, T/C",[24],83.9%
same,"viability, T/C",[45],77.5%
same,"viability, T/C",[46],74.4%
same,"viability, T/C",[47],68.9%
same,"viability, T/C",[48],71.2%
